Assays:
Type in all cases: in vivo
[1] = tested on: barnyardgrass (Echinochloa crus-galli); assay: Test B flooded paddy test, barnyardgrass; conditions: Flood, 250 g ai/ha, applied to paddy water, 2-leaf stage, visual evaluation after 13 to 15 d
Outline: (§1)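 Application was made into paddy water of pots flooded 3 cm deep at treatment, with seedlings at the 2-leaf stage. That flood level was kept throughout, and plants stayed under glass 13 to 15 d before visual assessment on a 0–100 control scale.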

[2] = tested on: kochia (Kochia scoparia); assay: Test A postemergence, kochia; conditions: 0 to 100 scale; for Kochia plant response rating: 0 is no effect, 100 is complete control
Outline: (§2)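 Pots of loam–sand mix; preemergence directed soil spray at sowing, postemergence spray at one- to two-leaf stage. Readout: visual injury vs untreated controls, ~10 d, 0–100 scale.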

[3] = tested on: ragweed (common ragweed, Ambrosia elatior); assay: Test A preemergence, ragweed; conditions: 0 to 100 scale; for Ragweed plant response rating: 0 is no effect, 100 is complete control
Outline: as §2

[4] = tested on: corn (Zea mays); assay: Test A postemergence, corn; conditions: 0 to 100 scale; for Corn plant response rating: 0 is no effect, 100 is complete control
Outline: as §2

[5] = tested on: galium (catchweed bedstraw, Galium aparine); assay: Test A postemergence, galium; conditions: 0 to 100 scale; for Galium plant response rating: 0 is no effect, 100 is complete control
Outline: as §2

[6] = tested on: foxtail, giant (Setaria faberii); assay: Test A postemergence, giant foxtail; conditions: 0 to 100 scale; for Foxtail, Giant plant response rating: 0 is no effect, 100 is complete control
Outline: as §2

[7] = tested on: barnyardgrass (Echinochloa crus-galli); assay: Test A postemergence, barnyardgrass; conditions: 0 to 100 scale; for Barnyardgrass plant response rating: 0 is no effect, 100 is complete control
Outline: as §2

[8] = tested on: ryegrass, Italian (Lolium multiflorum); assay: Test A postemergence, Italian ryegrass; conditions: 0 to 100 scale; for Ryegrass, Italian plant response rating: 0 is no effect, 100 is complete control
Outline: as §2

[9] = tested on: pigweed (Amaranthus retroflexus); assay: Test A preemergence, pigweed; conditions: 0 to 100 scale; for Pigweed plant response rating: 0 is no effect, 100 is complete control
Outline: as §2

[10] = tested on: sedge, umbrella (small-flower umbrella sedge, Cyperus difformis); assay: Test B flooded paddy test, umbrella sedge; conditions: Flood, 250 g ai/ha, applied to paddy water, 2-leaf stage, visual evaluation after 13 to 15 d
Outline: as §1

[11] = tested on: blackgrass (Alopecurus myosuroides); assay: Test A postemergence, blackgrass; conditions: 0 to 100 scale; for Blackgrass plant response rating: 0 is no effect, 100 is complete control
Outline: as §2

[12] = tested on: ryegrass, Italian (Lolium multiflorum); assay: Test A preemergence, Italian ryegrass; conditions: 0 to 100 scale; for Ryegrass, Italian plant response rating: 0 is no effect, 100 is complete control
Outline: as §2

[13] = tested on: rice (Oryza sativa); assay: Test B flooded paddy test, rice; conditions: Flood, 250 g ai/ha, applied to paddy water, 2-leaf stage, visual evaluation after 13 to 15 d
Outline: as §1

[14] = tested on: wheat (Triticum aestivum); assay: Test A postemergence, wheat; conditions: 0 to 100 scale; for Wheat plant response rating: 0 is no effect, 100 is complete control
Outline: as §2

[15] = tested on: kochia (Kochia scoparia); assay: Test A preemergence, kochia; conditions: 0 to 100 scale; for Kochia plant response rating: 0 is no effect, 100 is complete control
Outline: as §2

[16] = tested on: foxtail, giant (Setaria faberii); assay: Test A preemergence, giant foxtail; conditions: 0 to 100 scale; for Foxtail, Giant plant response rating: 0 is no effect, 100 is complete control
Outline: as §2

[17] = tested on: ragweed (common ragweed, Ambrosia elatior); assay: Test A postemergence, ragweed; conditions: 0 to 100 scale; for Ragweed plant response rating: 0 is no effect, 100 is complete control
Outline: as §2

[18] = tested on: barnyardgrass (Echinochloa crus-galli); assay: Test A preemergence, barnyardgrass; conditions: 0 to 100 scale; for Barnyardgrass plant response rating: 0 is no effect, 100 is complete control
Outline: as §2

[19] = tested on: pigweed (Amaranthus retroflexus); assay: Test A postemergence, pigweed; conditions: 0 to 100 scale; for Pigweed plant response rating: 0 is no effect, 100 is complete control
Outline: as §2

[20] = tested on: ducksalad (Heteranthera limosa); assay: Test B flooded paddy test, ducksalad; conditions: Flood, 250 g ai/ha, applied to paddy water, 2-leaf stage, visual evaluation after 13 to 15 d
Outline: as §1

[21] = 125 g ai/ha, 0 no effect, 100 complete control

## CC(Nc1ncc(C(F)(F)F)c(N)n1)c1csc2ccccc12 (stereo not drawn) [Compound 40]
[1]
  Plant response rating, Barnyardgrass (0 to 100 scale, 0 is no effect, 100 is complete control): 20
[2]; 125 g ai/ha
  Plant response rating, Kochia: 50
[2]; 500 g ai/ha
  Plant response rating, Kochia: 90
[3]; 125 g ai/ha
  Ragweed plant response rating: 90
[3]; 500 g ai/ha
  Plant response rating, Ragweed: 100
[4]; 125 g ai/ha
  Plant response rating, Corn: 0
[4]; 500 g ai/ha
  Plant response rating, Corn: 10
[5]; 125 g ai/ha
  Plant response rating, Galium: 60
[5]; 500 g ai/ha
  Plant response rating, Galium: 90
[6]; 125 g ai/ha
  Plant response rating, Foxtail, Giant: 0
[6]; 500 g ai/ha
  Plant response rating, Foxtail, Giant: 20
[7]; 125 g ai/ha
  Plant response rating, Barnyardgrass: 0
[7]; 500 g ai/ha
  Plant response rating, Barnyardgrass: 60
[8]; 125 g ai/ha
  Plant response rating, Ryegrass, Italian: 30
[8]; 500 g ai/ha
  Plant response rating, Ryegrass, Italian: 0
[9]; 125 g ai/ha
  Pigweed plant response rating: 100
[9]; 500 g ai/ha
  Plant response rating, Pigweed: 100
[10]
  Plant response rating, Sedge, Umbrella (0 to 100 scale, 0 is no effect, 100 is complete control): 40
[11]; 125 g ai/ha
  Plant response rating, Blackgrass: 0
[11]; 500 g ai/ha
  Plant response rating, Blackgrass: 10
[12]; 125 g ai/ha
  Ryegrass, Italian plant response rating: 20
[12]; 500 g ai/ha
  Plant response rating, Ryegrass, Italian: 100
[13]
  Plant response rating, Rice (0 to 100 scale, 0 is no effect, 100 is complete control): 0
[14]; 125 g ai/ha
  Plant response rating, Wheat: 0
[14]; 500 g ai/ha
  Plant response rating, Wheat: 0
[15]; 125 g ai/ha
  Kochia plant response rating: 60
[15]; 500 g ai/ha
  Plant response rating, Kochia: 60
[16]; 125 g ai/ha
  Foxtail, Giant plant response rating: 10
[16]; 500 g ai/ha
  Plant response rating, Foxtail, Giant: 90
[17]; 125 g ai/ha
  Plant response rating, Ragweed: 30
[17]; 500 g ai/ha
  Plant response rating, Ragweed: 60
[18]; 125 g ai/ha
  Barnyardgrass plant response rating: 30
[18]; 500 g ai/ha
  Plant response rating, Barnyardgrass: 80
[19]; 125 g ai/ha
  Plant response rating, Pigweed: 80
[19]; 500 g ai/ha
  Plant response rating, Pigweed: 100
[20]
  Plant response rating, Ducksalad (0 to 100 scale, 0 is no effect, 100 is complete control): 20

## C[C@@H](Nc1ncc(C(F)(F)F)c(N)n1)c1csc2ccccc12 [Compound 41]
[1]
  Plant response rating, Barnyardgrass (0 to 100 scale, 0 is no effect, 100 is complete control): 15
[2]; [21]
  Plant response rating, Kochia: 70
[2]; 500 g ai/ha
  Kochia plant response rating: 90
[3]; 125 g ai/ha
  Ragweed plant response rating: 90
[3]; 500 g ai/ha
  Ragweed plant response rating: 100
[4]; [21]
  Plant response rating, Corn: 10
[4]; 500 g ai/ha
  Corn plant response rating: 20
[5]; [21]
  Plant response rating, Galium: 50
[5]; 500 g ai/ha
  Galium plant response rating: 70
[6]; [21]
  Plant response rating, Foxtail, Giant: 50
[6]; 500 g ai/ha
  Foxtail, Giant plant response rating: 100
[7]; [21]
  Plant response rating, Barnyardgrass: 0
[7]; 500 g ai/ha
  Barnyardgrass plant response rating: 50
[8]; [21]
  Plant response rating, Ryegrass, Italian: 20
[8]; 500 g ai/ha
  Ryegrass, Italian plant response rating: 70
[9]; 125 g ai/ha
  Pigweed plant response rating: 80
[9]; 500 g ai/ha
  Pigweed plant response rating: 100
[10]
  Plant response rating, Sedge, Umbrella (0 to 100 scale, 0 is no effect, 100 is complete control): 65
[11]; [21]
  Plant response rating, Blackgrass: 0
[11]; 500 g ai/ha
  Blackgrass plant response rating: 0
[12]; 125 g ai/ha
  Ryegrass, Italian plant response rating: 20
[12]; 500 g ai/ha
  Ryegrass, Italian plant response rating: 80
[13]
  Plant response rating, Rice (0 to 100 scale, 0 is no effect, 100 is complete control): 0
[14]; [21]
  Plant response rating, Wheat: 0
[14]; 500 g ai/ha
  Wheat plant response rating: 0
[15]; 125 g ai/ha
  Kochia plant response rating: 70
[15]; 500 g ai/ha
  Kochia plant response rating: 90
[16]; 125 g ai/ha
  Foxtail, Giant plant response rating: 30
[16]; 500 g ai/ha
  Foxtail, Giant plant response rating: 90
[17]; [21]
  Plant response rating, Ragweed: 60
[17]; 500 g ai/ha
  Ragweed plant response rating: 90
[18]; 125 g ai/ha
  Barnyardgrass plant response rating: 40
[18]; 500 g ai/ha
  Barnyardgrass plant response rating: 90
[19]; [21]
  Plant response rating, Pigweed: 90
[19]; 500 g ai/ha
  Pigweed plant response rating: 100
[20]
  Plant response rating, Ducksalad (0 to 100 scale, 0 is no effect, 100 is complete control): 35

## C[C@H](Nc1ncc(C(F)(F)F)c(N)n1)c1csc2ccccc12 [Compound 42]
[1]
  Plant response rating, Barnyardgrass (0 to 100 scale, 0 is no effect, 100 is complete control): 0
[2]; [21]
  Plant response rating, Kochia: 0
[2]; 500 g ai/ha
  Kochia plant response rating: 0
[3]; 125 g ai/ha
  Ragweed plant response rating: 0
[3]; 500 g ai/ha
  Ragweed plant response rating: 0
[4]; [21]
  Plant response rating, Corn: 0
[4]; 500 g ai/ha
  Corn plant response rating: 0
[5]; [21]
  Plant response rating, Galium: 20
[5]; 500 g ai/ha
  Galium plant response rating: 20
[6]; [21]
  Plant response rating, Foxtail, Giant: 0
[6]; 500 g ai/ha
  Foxtail, Giant plant response rating: 0
[7]; [21]
  Plant response rating, Barnyardgrass: 30
[7]; 500 g ai/ha
  Barnyardgrass plant response rating: 0
[8]; [21]
  Plant response rating, Ryegrass, Italian: 0
[8]; 500 g ai/ha
  Ryegrass, Italian plant response rating: 0
[9]; 125 g ai/ha
  Pigweed plant response rating: 0
[9]; 500 g ai/ha
  Pigweed plant response rating: 0
[10]
  Plant response rating, Sedge, Umbrella (0 to 100 scale, 0 is no effect, 100 is complete control): 0
[11]; [21]
  Plant response rating, Blackgrass: 20
[11]; 500 g ai/ha
  Blackgrass plant response rating: 0
[12]; 125 g ai/ha
  Ryegrass, Italian plant response rating: 0
[12]; 500 g ai/ha
  Ryegrass, Italian plant response rating: 0
[13]
  Plant response rating, Rice (0 to 100 scale, 0 is no effect, 100 is complete control): 0
[14]; [21]
  Plant response rating, Wheat: 0
[14]; 500 g ai/ha
  Wheat plant response rating: 0
[15]; 125 g ai/ha
  Kochia plant response rating: 0
[15]; 500 g ai/ha
  Kochia plant response rating: 0
[16]; 125 g ai/ha
  Foxtail, Giant plant response rating: 0
[16]; 500 g ai/ha
  Foxtail, Giant plant response rating: 0
[17]; [21]
  Plant response rating, Ragweed: 30
[17]; 500 g ai/ha
  Ragweed plant response rating: 0
[18]; 125 g ai/ha
  Barnyardgrass plant response rating: 0
[18]; 500 g ai/ha
  Barnyardgrass plant response rating: 0
[19]; [21]
  Plant response rating, Pigweed: 0
[19]; 500 g ai/ha
  Pigweed plant response rating: 0
[20]
  Plant response rating, Ducksalad (0 to 100 scale, 0 is no effect, 100 is complete control): 0

— patent publication US20220119354A1, “DIAMINO-SUBSTITUTED PYRIDINES AND PYRIMIDINES AS HERBICIDES” (FMC Corporation, priority 2019, published 2022)
